Tests used:
Assay type in all cases: cell-based
human TLR9 = target: T1, human TLR9 (Homo sapiens, UniProt Q9NR96); test: TLR7/8/9 Inhibition Reporter Assays (TLR9); details: HEK-Blue cells overexpressing human TLR9, SEAP reporter, stimulated with TLR9 ligand ODN2006
T1 construct: host or cells: HEK-Blue cells (HEK293-derived reporter line)
T1 sequence (Q9NR96 26-1032): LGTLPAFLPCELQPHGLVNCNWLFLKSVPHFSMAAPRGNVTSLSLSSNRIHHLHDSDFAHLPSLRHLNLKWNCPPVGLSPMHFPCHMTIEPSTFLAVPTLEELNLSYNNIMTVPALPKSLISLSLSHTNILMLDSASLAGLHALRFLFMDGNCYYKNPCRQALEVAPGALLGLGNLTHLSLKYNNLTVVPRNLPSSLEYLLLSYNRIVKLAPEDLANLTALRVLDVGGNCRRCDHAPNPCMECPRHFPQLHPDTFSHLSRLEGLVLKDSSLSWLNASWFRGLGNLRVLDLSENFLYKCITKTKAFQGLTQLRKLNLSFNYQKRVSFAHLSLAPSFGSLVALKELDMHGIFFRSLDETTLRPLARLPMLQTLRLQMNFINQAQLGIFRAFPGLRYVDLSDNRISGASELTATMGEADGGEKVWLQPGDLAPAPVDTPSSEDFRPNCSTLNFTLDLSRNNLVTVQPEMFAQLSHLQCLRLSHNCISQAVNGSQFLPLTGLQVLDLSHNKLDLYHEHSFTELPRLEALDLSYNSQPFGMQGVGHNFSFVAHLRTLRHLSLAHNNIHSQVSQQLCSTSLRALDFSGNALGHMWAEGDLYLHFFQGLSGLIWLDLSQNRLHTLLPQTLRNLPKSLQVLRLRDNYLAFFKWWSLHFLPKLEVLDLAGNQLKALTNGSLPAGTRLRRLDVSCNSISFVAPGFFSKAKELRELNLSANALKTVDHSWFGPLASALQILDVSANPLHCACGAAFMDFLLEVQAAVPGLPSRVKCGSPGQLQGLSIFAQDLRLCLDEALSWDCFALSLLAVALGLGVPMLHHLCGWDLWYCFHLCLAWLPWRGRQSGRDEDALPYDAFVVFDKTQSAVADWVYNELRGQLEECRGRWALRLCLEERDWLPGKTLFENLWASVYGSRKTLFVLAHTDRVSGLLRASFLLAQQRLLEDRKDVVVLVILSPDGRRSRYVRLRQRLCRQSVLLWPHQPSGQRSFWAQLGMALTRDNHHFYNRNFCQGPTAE
In short: (§1)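 HEK-Blue cells overexpressing human TLR7, TLR8 or TLR9 with NF-κB/AP-1-driven SEAP reporter, pre-treated 60 min with compound ([…]). Stimulated with […] (TLR7), […] (TLR8) or ODN2006 200 nM (TLR9), then 22 h at 37° C; SEAP measured, % inhibition relative to agonist-plus-DMSO and known-inhibitor wells.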

human TLR8 = target: T2, human TLR8 (Homo sapiens, UniProt Q9NR97); test: TLR7/8/9 Inhibition Reporter Assays (TLR8); details: HEK-Blue cells overexpressing human TLR8, SEAP reporter, stimulated with TLR8 ligand R848
T2 construct: host or cells: HEK-Blue cells (HEK293-derived reporter line)
T2 sequence (Q9NR97 27-1041): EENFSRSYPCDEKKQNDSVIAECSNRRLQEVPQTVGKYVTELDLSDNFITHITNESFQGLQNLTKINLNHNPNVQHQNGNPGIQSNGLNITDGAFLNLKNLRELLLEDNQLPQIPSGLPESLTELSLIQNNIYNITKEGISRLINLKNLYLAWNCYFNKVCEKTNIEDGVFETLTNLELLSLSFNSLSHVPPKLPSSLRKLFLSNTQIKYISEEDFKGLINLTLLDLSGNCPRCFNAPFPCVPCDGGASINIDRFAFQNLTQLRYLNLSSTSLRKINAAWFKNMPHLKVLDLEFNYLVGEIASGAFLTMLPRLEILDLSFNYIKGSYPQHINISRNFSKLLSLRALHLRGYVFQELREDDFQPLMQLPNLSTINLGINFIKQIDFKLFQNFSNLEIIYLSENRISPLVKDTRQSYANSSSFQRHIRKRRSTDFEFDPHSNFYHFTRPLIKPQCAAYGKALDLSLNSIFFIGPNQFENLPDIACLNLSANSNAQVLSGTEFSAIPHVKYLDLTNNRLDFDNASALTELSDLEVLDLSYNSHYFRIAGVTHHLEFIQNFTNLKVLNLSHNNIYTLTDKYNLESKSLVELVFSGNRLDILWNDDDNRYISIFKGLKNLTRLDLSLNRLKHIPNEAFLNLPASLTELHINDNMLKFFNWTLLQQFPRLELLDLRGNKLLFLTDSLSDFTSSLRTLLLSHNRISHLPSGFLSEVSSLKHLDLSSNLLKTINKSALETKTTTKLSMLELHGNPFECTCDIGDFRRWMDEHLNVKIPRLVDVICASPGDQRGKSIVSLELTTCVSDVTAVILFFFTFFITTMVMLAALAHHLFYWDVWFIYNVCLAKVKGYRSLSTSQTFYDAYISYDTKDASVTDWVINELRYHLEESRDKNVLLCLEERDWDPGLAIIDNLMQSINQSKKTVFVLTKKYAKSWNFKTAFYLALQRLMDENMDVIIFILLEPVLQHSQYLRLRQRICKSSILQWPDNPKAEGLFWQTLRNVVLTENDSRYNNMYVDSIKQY
In short: as §1

human TLR7 = target: T3, human TLR7 (Homo sapiens, UniProt Q9NYK1); test: TLR7/8/9 Inhibition Reporter Assays (TLR7); details: HEK-Blue cells overexpressing human TLR7, SEAP reporter, stimulated with TLR7 ligand gardiquimod
T3 construct: host or cells: HEK-Blue cells (HEK293-derived reporter line)
T3 sequence (Q9NYK1 27-1049): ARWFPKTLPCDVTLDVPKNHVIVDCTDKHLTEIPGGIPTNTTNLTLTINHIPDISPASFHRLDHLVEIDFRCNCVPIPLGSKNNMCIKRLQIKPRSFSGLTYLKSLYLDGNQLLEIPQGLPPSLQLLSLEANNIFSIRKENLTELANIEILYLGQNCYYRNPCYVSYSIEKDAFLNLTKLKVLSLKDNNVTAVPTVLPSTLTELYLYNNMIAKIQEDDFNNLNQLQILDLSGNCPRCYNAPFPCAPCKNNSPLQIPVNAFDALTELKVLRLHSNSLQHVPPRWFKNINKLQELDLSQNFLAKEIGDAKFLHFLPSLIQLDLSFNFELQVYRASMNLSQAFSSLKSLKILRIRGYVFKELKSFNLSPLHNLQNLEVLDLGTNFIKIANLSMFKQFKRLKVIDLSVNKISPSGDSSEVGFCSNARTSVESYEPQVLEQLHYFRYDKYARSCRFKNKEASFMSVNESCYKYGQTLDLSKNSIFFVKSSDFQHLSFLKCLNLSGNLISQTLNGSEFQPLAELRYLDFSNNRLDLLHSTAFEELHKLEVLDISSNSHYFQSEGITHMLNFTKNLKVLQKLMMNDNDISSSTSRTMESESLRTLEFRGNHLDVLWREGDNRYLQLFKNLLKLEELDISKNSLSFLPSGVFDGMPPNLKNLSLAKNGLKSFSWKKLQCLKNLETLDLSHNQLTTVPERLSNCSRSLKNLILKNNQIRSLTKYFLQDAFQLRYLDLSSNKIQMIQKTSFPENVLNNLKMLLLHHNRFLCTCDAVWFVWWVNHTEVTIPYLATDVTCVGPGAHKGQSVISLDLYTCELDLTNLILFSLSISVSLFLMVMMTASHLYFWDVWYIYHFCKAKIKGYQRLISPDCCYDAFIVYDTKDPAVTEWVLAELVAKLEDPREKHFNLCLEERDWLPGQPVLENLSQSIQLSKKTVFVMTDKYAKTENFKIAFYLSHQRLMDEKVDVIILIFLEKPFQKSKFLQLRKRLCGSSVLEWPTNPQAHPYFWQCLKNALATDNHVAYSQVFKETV
In short: as §1

Compound | IC50 (human TLR9) [nM] | IC50 (human TLR8) [nM] | IC50 (human TLR7) [nM]
Cc1nc(-c2ccc(CCN3CCC(N4CCOCC4)CC3)cc2)cc2c1nc(-c1ccc(S(C)(=O)=O)cc1)n2C [Example 53, 4-(1-(4-(1,4-dimethyl-2-(4-(methylsulfonyl)phenyl)-1H-imidazo[4,5-c]pyridin-6-yl)phenethyl)piperidin-4-yl) morpholine] | 74 | 7600 | 3100
CC(C)N1CCC(N2CC=C(c3cc4c(nc(-c5ccc(S(C)(=O)=O)cc5)n4C)c(C(F)(F)F)n3)CC2)CC1 [Example 35, 6-(1-(1-isopropylpiperidin-4-yl)-1,2,3,6-tetrahydropyridin-4-yl)-1-methyl-2-(4-(methylsulfonyl)phenyl)-4-(trifluoromethyl)-1H-imidazo[4,5-c]pyridine] | 160 | > 50000 | 3300
COc1ccc(-c2nc3c(C)nc(-c4ccc(N5C[C@H]6CN(CC(C)(C)O)C[C@H]6C5)cc4)cc3n2C)cc1OC [Example 94, 1-((3aR,6aS)-5-(4-(2-(3,4-dimethoxyphenyl)-1,4-dimethyl-1H-imidazo[4,5-c]pyridin-6-yl)phenyl)hexahydropyrrolo[3,4-c]pyrrol-2(1H)-yl)-2-methylpropan-2-ol] | 250 | 44000 | 2600
Cc1nc(-c2ccc(CN3CCC(N4CCOCC4)CC3)cc2)cc2c1nc(-c1ccc(S(C)(=O)=O)cc1)n2C [Example 54, 4-(1-(4-(1,4-dimethyl-2-(4-(methylsulfonyl)phenyl)-1H-imidazo[4,5-c]pyridin-6-yl)benzyl)piperidin-4-yl)morpholine] | 240 | 9500 | > 50000
Cc1cc(-c2nc3c(C)nc(-c4ccc(N5CCN(C6CCC6)CC5)cc4)cc3n2C)cc(C)n1 [Example 16, 6-(4-(4-cyclobutylpiperazin-1-yl)phenyl)-2-(2,6-dimethylpyridin-4-yl)-1,4-dimethyl-1H-imidazo[4,5-c]pyridine] | 910 | > 50000 | 2100
Cc1nc(-c2ccc(C3CCNCC3)cc2)cc2c1nc(-c1ccc(S(C)(=O)=O)cc1)n2C [Example 27, 1,4-dimethyl-2-(4-(methylsulfonyl)phenyl)-6-(4-(piperidin-4-yl)phenyl)-1H-imidazo[4,5-c]pyridine] | 1100 | 46000 | 20000
COc1ccc(-c2nc3cnc(-c4ccc(N5CC6(C5)CN(C(C)C)C6)cc4)cc3n2C2CC2)cc1OC [Example 84, 1-cyclopropyl-2-(3,4-dimethoxyphenyl)-6-(4-(6-isopropyl-2,6-diazaspiro[3.3]heptan-2-yl)phenyl)-1H-imidazo[4,5-c]pyridine] | 180 | 2200 | 4400
Cc1nc(-c2ccc(N3CCN(C4CCC4)CC3)cc2)cc2c1nc(-c1ccc(S(C)(=O)=O)cc1)n2C [Example 21, 6-(4-(4-cyclobutylpiperazin-1-yl)phenyl)-1,4-dimethyl-2-(4-(methylsulfonyl)phenyl)-1H-imidazo[4,5-c]pyridine] | 450 | 3300 | 3000
COc1ccc(-c2nc3c(C)nc(-c4ccc(N5CCC6(CC5)CN(C5COC5)C6)cc4)cc3n2C)cc1OC [Example 106, 2-(3,4-dimethoxyphenyl)-1,4-dimethyl-6-(4-(2-(oxetan-3-yl)-2,7-diazaspiro[3.5]nonan-7-yl)phenyl)-1H-imidazo[4,5-c]pyridine] | 230 | > 50000 | 4000
Cc1nc(-c2ccc(CN3CCC(N(C)C4CC4)CC3)cc2)cc2c1nc(-c1ccc(S(C)(=O)=O)cc1)n2C [Example 47, N-cyclopropyl-1-(4-(1,4-dimethyl-2-(4-(methylsulfonyl)phenyl)-1H-imidazo[4,5-c]pyridin-6-yl)benzyl)-N-methylpiperidin-4-amine] | 230 | 5500 | 1700
COc1ccc(-c2nc3c(C)nc(-c4ccc(N5CC6(C5)CN(C(C)C)C6)cc4)cc3n2C)cc1OC [Example 76, 2-(3,4-dimethoxyphenyl)-6-(4-(6-isopropyl-2,6-diazaspiro[3.3]heptan-2-yl)phenyl)-1,4-dimethyl-1H-imidazo[4,5-c]pyridine] | 23 | 3600 | 1800
Cc1nc(-c2ccc(C3CCN(C)CC3)cc2)cc2c1nc(-c1ccc(S(C)(=O)=O)cc1)n2C [Example 26, 1,4-dimethyl-6-(4-(1-methylpiperidin-4-yl)phenyl)-2-(4-(methylsulfonyl)phenyl)-1H-imidazo[4,5-c]pyridine] | 230 | 41000 | 6100
Cc1nc(-c2ccc(CN3CCC(N4CCCC4)CC3)cc2)cc2c1nc(-c1ccc(S(C)(=O)=O)cc1)n2C [Example 46, 1,4-dimethyl-2-(4-(methylsulfonyl)phenyl)-6-(4-((4-(pyrrolidin-1-yl)piperidin-1-yl)methyl)phenyl)-1H-imidazo[4,5-c]pyridine] | 58 | 5500 | 1000
